Measured values as given in patent US9938316B2, “Selective inhibitors of α2 isoform of Na,K-ATPase and use thereof for reduction of intra-ocular pressure and as cardiotonic agents” (priority 2013, dated 2018).

What was measured:
[1] = tested on: Na,K-ATPase isoforms (α1β1, α2β1, α3β1); conditions: membranes; cited from earlier work
[2] = tested on: purified α2β1FXYD1 complexes of Na,K-ATPase; assay: Dissociation of cardiac glycosides from the α2β1 isoform complex
Method: Since the principal isoform in NPE cells is α2 and dissociation from the pump is expected to affect the duration of the effects on IOP, the dissociation rates of different cardiac glycosides from the purified α2β1 isoform were compared.
Purified α2β1FXYD1 complexes (0.3-0.5 mg/ml) were incubated for 30 minutes at 37° C. in a medium containing ATP, 1 mM; NaCl 100 mM; MgCl2, 4 mM Histidine.HCl 25 mM pH 7.4 without (Control) or with 1 μM of different cardiac glycosides. The enzyme solutions were then diluted 100-fold into a medium containing 100 mM NaCl, 5 mM KCl, 1 mM EDTA (Tris), 0.005 mg/ml C12E8, 0.01 mg/ml SOPS, and 0.001 mg/ml cholesterol and incubated at 37° C. for different lengths of time. Aliquots were removed at different times and Na,K-ATPase activity was measured in triplicate over 0.5 minutes (digoxigenin) or 2 minutes (other cardiac glycosides) in the standard activity medium containing 200 μM ATP. The activity of test samples was divided by the activity of the control samples and the time-course for reversal of inhibition was analyzed by fitting the data to the function vt=v∞e^−kt+c. Normalized curves for comparison of different experiments (e.g. as in FIG. 9) were obtained by subtracting the constant value c from each value of the activity and re-fitting the ratio vt/v∞=1−e^−kt.

[3] = tested on: intra-ocular pressure (IOP) of rabbits; assay: 4-aminopyridine (4AP)-induced ocular hypertension in rabbits; assay type: in vivo, New Zealand white rabbits; conditions: for Effect on 4AP-induced rise in IOP: 1 drop topically 30 minutes prior to 4AP
Method: Intra-ocular pressure in rabbits was measured using of a “Reichert Model 30™ Pneumatonometer” after anesthetizing the cornea with local anesthetic.
Since the IOP reflects a balance of the inflow and outflow of aqueous humour, reduction of the increased 4AP-induced inflow of aqueous humour by cardiac glycosides should prevent the increase in IOP. Thus, the standard experimental design to test effects of cardiac glycosides involved topical application of the compounds (1 drop in each eye) 30 minutes prior to application of 4AP and measurement of IOP every 30 minutes over five hours. […] Each experiment was done three times, but the figures depict a representative experiment using a different rabbit for each concentration of the cardiac glycoside.
DGlyN or DMe (0.1 or 1 mM) were applied one hour after the first application of 4AP, which was added every two hours.
New Zealand white rabbits (3-3.5 kg) about 1 year old, of either sex, were housed individually in separate cages in animal room conditions on a reversed, 12-hour dark/light cycle. For the experiments the animals were transferred to rabbit restrainers in a quiet and calm atmosphere (FIG. 1). […] Animal care and treatment were subject to the approval of the institutional committee for animal experiments, Weizmann Institute IACUC permission (no 04270911-2).
IOP (mm Hg) of rabbits was measured using a calibrated Pneumatonometer (Model 30, Reichert technologies, FIG. 1). A local anesthetic Oxybuprocaine HCl (0.4%, 25 μl) was applied to each cornea about a minute before IOP measurements. Two baseline IOP readings were taken before topical administration of the CG (or PBS as control) and after half an hour (Zero time). […] At zero time one drop of 4AP (40 mg/ml, 30 μl) or IB-MECA (1 μM, 30 μl) was administered to both eyes of each rabbit IOP measurements were made at different times as indicated in each experiment. In the experiments for which the IOP was elevated for several hours, 4AP was added every […] or IB-MECA every 2 hours. […] In all cases the figures depict the average effect on IOP (i.e for four or six eyes) compared to control ±SEM. […] Significance of differences from the control was calculated by the unpaired Students t-test (p values), p values <0.05 were considered significant. Corneal thickness (μm) was measured using an ultrasonic pachymeter (Sonogage pachometer, Cleveland, USA), before and during the experiment with CG and 4AP treatments. The values represent averages of three independent measurements for each eye.

[4] = tested on: cornea of rabbits; assay: Pachymetry: corneal thickness and local toxicity after topical cardiac glycosides; assay type: in vivo, New Zealand white rabbits; conditions: rabbit, in vivo
Method: Thus, in this study, no change in corneal thickness was detected (Table 3), indicative of lack of local toxic effects. […] Similar results were obtained with CG's applied after IB-MECA.
IOP (mm Hg) of rabbits was measured using a calibrated Pneumatonometer (Model 30, Reichert technologies, FIG. 1). A local anesthetic Oxybuprocaine HCl (0.4%, 25 μl) was applied to each cornea about a minute before IOP measurements. Two baseline IOP readings were taken before topical administration of the CG (or PBS as control) and after half an hour (Zero time). […] At zero time one drop of 4AP (40 mg/ml, 30 μl) or IB-MECA (1 μM, 30 μl) was administered to both eyes of each rabbit IOP measurements were made at different times as indicated in each experiment. In the experiments for which the IOP was elevated for several hours, 4AP was added every 1.5 hours or IB-MECA every 2 hours. […] Each experiment was repeated two or three times with similar results. In all cases the figures depict the average effect on IOP (i.e for four or six eyes) compared to control ±SEM. Where error bars are not seen in the figures, the errors are smaller than the symbols used. Significance of differences from the control was calculated by the unpaired Students t-test (p values), p values <0.05 were considered significant. Corneal thickness (μm) was measured using an ultrasonic pachymeter (Sonogage pachometer, Cleveland, USA), before and during the experiment with CG and 4AP treatments. The values represent averages of three independent measurements for each eye.

Row | Structure (SMILES) | Isoform selectivity of KD (in words) [1] | t1/2 ± SEM (dissociation) [2] [min] | k ± SEM (rate of dissociation) ([2]; α2β1 isoform complex, 37° C.) | Effect on 4AP-induced rise in IOP ([3]; 0.25 mM) | Effect on 4AP-induced rise in IOP ([3]; 1 mM) | Time IOP is maintained at the low level ([3]; 1 mM, single drop, 4AP every two hours) [h] | Redness or local irritation in conjunctiva or cornea [4]
1 | C[C@]12CC[C@H](O)C[C@H]1CC[C@@H]1[C@@H]2CC[C@]2(C)[C@@H](C3=CC(=O)OC3)CC[C@]12O [digitoxgenin] | no isoform selectivity | – | – | – | – | – | –
2 | C[C@H]1O[C@@H](O[C@H]2[C@@H](O)C[C@H](O[C@H]3[C@@H](O)C[C@H](O[C@H]4CC[C@@]5(C)[C@H](CC[C@@H]6[C@@H]5C[C@@H](O)[C@]5(C)[C@@H](C7=CC(=O)OC7)CC[C@]65O)C4)O[C@@H]3C)O[C@@H]2C)C[C@H](O)[C@@H]1O [Digoxin, digoxin, reference compound] | – | 47.5 ± 5.05 | 0.015 ± 0.001, 4 min^−1 | poorly effective | able to prevent the 4AP-induced rise in IOP | 1 | neither redness nor local irritation were observed
